This passage reports melting point results from patent publication US20010055565A1, “Method of detecting cyclooxygenase-2” (G.D. Searle & Co., priority 1995, published 2001).

The melting point is the temperature of the solid-liquid transition.

Compound `COc1ccc(-c2cc(C(F)F)nn2-c2ccc(S(N)(=O)=O)cc2)cc1I` [Example 6, 4-[3-(Difluoromethyl)-5-(3-iodo-4-methoxyphenyl)-1H-pyrazol-1-yl]benzenesulfonamide] gave a melting point of 184.2 to 188.4 °C.

As to `COc1ccc(-c2cc(CO)nn2-c2ccc(S(N)(=O)=O)cc2)cc1I` [Example 5, 4-[3-(Hydroxymethyl)-5-(3-iodo-4-methoxyphenyl)-1H-pyrazol-1-yl]benzenesulfonamide], the melting point lay in the range of 192.3 to 193.3 °C.

Regarding `COc1ccc(-c2cc(C(F)(F)F)nn2-c2ccc(S(N)(=O)=O)cc2)cc1I` [Example 7, 4-[5-(3-Iodo-4-methoxyphenyl)-3-trifluoromethyl-1H-pyrazol-1-yl]benzenesulfonamide], the melting point lay within 183.1 to 185.6 °C.
